# Key:
# [1] = listed in Supplementary Table S1; no reference given; cited from earlier work
# [2] = tested on: hiPSC-CMs (iCell2 Cardiomyocytes) 2D monolayers; assay: Contractility measurements using video imaging (ContractilityTool / MUSCLEMOTION); type: cell-based, human; settings: Homo sapiens, Cardiomyocyte, 0.5 h, 30 min, delta over DMSO 0.1%
# Method in brief: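 Monolayers on fibronectin or Matrix Plus coating, tested on days 5–6 in serum-free medium. Four concentrations, one per well, n = 8, with vehicle control.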
# [3] = tested on: hiPSC-CMs (iCell2 Cardiomyocytes) 2D monolayers; assay: Membrane potential (action potential) recordings with FluoVolt voltage-sensitive dye on the CellOPTIQ platform; type: cell-based, human; settings: for activity at 0.3 µM / activity at 1 µM / activity at 3 µM / activity at 10 µM: Homo sapiens, Cardiomyocyte, 0.5 h, 30 min, delta over DMSO 0.1%
# Method in brief: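 iCell2 hiPSC-CM monolayers (50,000 cells/well on fibronectin or Matrix Plus, days 5–6) were loaded with FluoVolt (1:1000, 20 min, 37 °C) and imaged at 37 °C with 470 nm excitation and 510–560 nm emission sampled at 10 kHz. Spontaneous action potentials were recorded for 10 s at baseline and 30 min after drug, with one of four concentrations per well (n = 8).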
# [4] = FM monolayer, read-out: CtAmp (%DD)
# [5] = FM monolayer, read-out: CtD50 (%DD)
# [6] = MM monolayer, read-out: CtAmp (%DD)
# [7] = MM monolayer, read-out: CtD50 (%DD)
# [8] = FM monolayer, read-out: APD30 (%DD)
# [9] = FM monolayer, read-out: APD90 (%DD)
# [10] = FM monolayer, read-out: CL (%DD)
# [11] = FM monolayer, read-out: Trise (%DD)
# [12] = MM monolayer, read-out: APD30 (%DD)
# [13] = MM monolayer, read-out: APD90 (%DD)
# [14] = MM monolayer, read-out: CL (%DD)
# [15] = MM monolayer, read-out: Trise (%DD)
# [16] = both FM and MM monolayers, concentration not given
compound,measurement,setting,value
Cc1[nH]c(=O)c(C#N)cc1-c1ccncc1 [Milrinone],Free Cmax,[1],2320 nM
same,activity at 0.3 µM,[2]; [4],103 ± 10.9%
same,activity at 0.3 µM,[2]; [5],101 ± 1.7%
same,activity at 1 µM,[2]; [4],116 ± 13.2%
same,activity at 1 µM,[2]; [5],104 ± 2.4%
same,activity at 3 µM,[2]; [4],100 ± 8.4%
same,activity at 3 µM,[2]; [5],103 ± 1.7%
same,activity at 10 µM,[2]; [4],81 ± 5.7%
same,activity at 10 µM,[2]; [5],101 ± 1.7%
same,activity at 0.3 µM,[2]; [6],131 ± 17.5%
same,activity at 0.3 µM,[2]; [7],100 ± 1%
same,activity at 1 µM,[2]; [6],115 ± 6.3%
same,activity at 1 µM,[2]; [7],105 ± 1.8%
same,activity at 3 µM,[2]; [6],76 ± 9.1%
same,activity at 3 µM,[2]; [7],104 ± 1.5%
same,activity at 10 µM,[2]; [6],129 ± 28.5%
same,activity at 10 µM,[2]; [7],100 ± 1.4%
same,activity at 0.3 µM,[3]; [8],96 ± 1.8%
same,activity at 0.3 µM,[3]; [9],96 ± 1.2%
same,activity at 0.3 µM,[3]; [10],96 ± 1.6%
same,activity at 0.3 µM,[3]; [11],80 ± 13.1%
same,activity at 1 µM,[3]; [8],100 ± 1%
same,activity at 1 µM,[3]; [9],96 ± 0.7%
same,activity at 1 µM,[3]; [10],99 ± 0.8%
same,activity at 1 µM,[3]; [11],74 ± 13.3%
same,activity at 3 µM,[3]; [8],96 ± 1.9%
same,activity at 3 µM,[3]; [9],94 ± 0.4%
same,activity at 3 µM,[3]; [10],100 ± 0.7%
same,activity at 3 µM,[3]; [11],68 ± 7.3%
same,activity at 10 µM,[3]; [8],92 ± 2%
same,activity at 10 µM,[3]; [9],95 ± 1.1%
same,activity at 10 µM,[3]; [10],103 ± 0.6%
same,activity at 10 µM,[3]; [11],106 ± 26.8%
same,activity at 0.3 µM,[3]; [12],96 ± 1.6%
same,activity at 0.3 µM,[3]; [13],97 ± 1.1%
same,activity at 0.3 µM,[3]; [14],97 ± 0.2%
same,activity at 0.3 µM,[3]; [15],112 ± 18.8%
same,activity at 1 µM,[3]; [12],97 ± 0.7%
same,activity at 1 µM,[3]; [13],99 ± 0.5%
same,activity at 1 µM,[3]; [14],100 ± 0.6%
same,activity at 1 µM,[3]; [15],125 ± 11.4%
same,activity at 3 µM,[3]; [12],97 ± 1.4%
same,activity at 3 µM,[3]; [13],102 ± 1.4%
same,activity at 3 µM,[3]; [14],101 ± 0.5%
same,activity at 3 µM,[3]; [15],132 ± 27.3%
same,activity at 10 µM,[3]; [12],95 ± 1%
same,activity at 10 µM,[3]; [13],100 ± 0.9%
same,activity at 10 µM,[3]; [14],103 ± 0.2%
same,activity at 10 µM,[3]; [15],102 ± 7%
C=C[C@H]1C[N@@]2CC[C@H]1C[C@@H]2[C@@H](O)c1ccnc2ccc(OC)cc12 [Quinidine],Free Cmax,[1],920 nM
same,activity at 0.3 µM,[2]; [4],66 ± 15.3%
same,activity at 0.3 µM,[2]; [5],111 ± 6.3%
same,activity at 1 µM,[2]; [4],162 ± 50.3%
same,activity at 1 µM,[2]; [5],106 ± 1.8%
same,activity at 0.3 µM,[2]; [6],118 ± 21.6%
same,activity at 0.3 µM,[2]; [7],107 ± 2.7%
same,activity at 1 µM,[2]; [6],99 ± 13.1%
same,activity at 1 µM,[2]; [7],97 ± 2.5%
same,activity at 3 µM,[2]; [6],106 ± 11.4%
same,activity at 3 µM,[2]; [7],105 ± 1.5%
same,activity at 0.3 µM,[3]; [8],105 ± 2.9%
same,activity at 0.3 µM,[3]; [9],115 ± 2.5%
same,activity at 0.3 µM,[3]; [11],103 ± 14%
same,activity at 1 µM,[3]; [8],104 ± 1.4%
same,activity at 1 µM,[3]; [9],122 ± 1.4%
same,activity at 1 µM,[3]; [11],135 ± 8.3%
same,activity at 0.3 µM,[3]; [12],104 ± 1.4%
same,activity at 0.3 µM,[3]; [13],108 ± 1.2%
same,activity at 0.3 µM,[3]; [15],111 ± 15.7%
same,activity at 1 µM,[3]; [12],100 ± 1.2%
same,activity at 1 µM,[3]; [13],115 ± 0.8%
same,activity at 1 µM,[3]; [15],123 ± 15%
same,activity at 3 µM,[3]; [12],103 ± 2.1%
same,activity at 3 µM,[3]; [13],121 ± 1.2%
same,activity at 3 µM,[3]; [15],188 ± 23.3%
same,effect on AP rise time (Trise) (in words),[3]; [16],increased
same,effect on APD90 (in words),[3]; [16],increased
same,effect on cycle length (in words),[3]; [16],increased
same,electrical activity of the monolayers at higher concentrations,"[3]; higher concentrations, FM and MM",electrically quiescent
